Patent publication US8440420B2, “Assessment of cardiac health and thrombotic risk in a patient” (priority 2005, dated 2013)
Read-outs that look alike come from different tables or passages of the source. Where a SMILES comes first, the peptide text is derived from it. Bridges are numbered along the chain shown (N, C = ends). [ ]: non-standard residue; d: D form. hArg = N=C(N)NCCCC[C@H](N)C(=O)O; Mpa = O=C(O)CCS

Experiments:
[1] = system: platelets (ADP-induced aggregation); conditions: resistance = >75th percentile of group without SAT, 75 mg maintenance dose
Description: Cases of stent thrombosis (n=30) were identified by searching the medical records of patients who underwent coronary stenting in the last 1.5 years at the Sinai Hospital of Baltimore and Union Memorial Hospital, Baltimore, Md. […] Stent thrombosis was defined by the sudden onset of coronary artery occlusion in a stented vessel resulting in hospitalization and judged by the treating interventionalist as due to thrombosis. Platelet reactivity in patients with stent thrombosis (SAT) was compared to a group of patients without SAT. In patients without SAT, platelet studies were performed 5-14 days post-procedure and these patients were enrolled consecutively (n=100). […]
Platelet aggregation was determined by conventional light transmittance aggregometry in response to 5 and 20 μM ADP (adenosine diphosphate); and 1.0 mM arachidonic acid using standard methods as previously described. […] The platelet count was determined in the PRPR sample and adjusted to 2-3×10^8/ml with homologous PPP. Platelets in PRP were stimulated with a final concentration of 5 and 20 μM ADP (Chronolog, Haverton, Pa.), and percent aggregation was assessed as previously described using a Chronolog Lumi aggregometer (Model 490A) with the Aggro-Link software package (Gurbel et al. J Am Coll Cardiol 1998 89:783). […]

[2] = system: platelets (ADP-induced aggregation); assay: ADP-induced platelet aggregation by light transmittance aggregometry after coronary stenting (Example 2); format: in vivo, patients
Experimental: Patients were randomly assigned to one of four treatment regimens by a computer generated assignment that was chosen from a sealed envelope by the study personnel: […] […] Unfractionated heparin was administered according to the ESPRIT dosing regimen (60 U/kg) as a bolus to all patients in the catheterization laboratory immediately prior to stenting. […] The blood-citrate tubes were centrifuged at 120 g for 5 minutes to recover platelet rich plasma (PRP) and further centrifuged at 850 g for 10 minutes to recover platelet poor plasma (PPP). The platelet count was determined in the PRP sample and adjusted to 3.0×10^8/ml with homologous platelet poor plasma. The PRP and PPP were stored at room temperature to be used within two hours. Platelet aggregation was assessed as described previously. […] Aggregation was expressed as the maximum percent change in light transmittance from baseline, using PPP as a reference.

[3] = system: myocardial necrosis markers (troponin I, CKMB, myoglobin); assay: Myocardial necrosis markers and infarction after elective stenting (Example 2); format: in vivo, patients; conditions: for criteria met for a myocardial infarction: CK-MB>3× ULN in at least 2 samples; for large infarcts: CK-MB>5×ULN in at least 2 samples
Experimental: Patients were randomly assigned to one of four treatment regimens by a computer generated assignment that was chosen from a sealed envelope by the study personnel: […] […] Unfractionated heparin was administered according to the ESPRIT dosing regimen (60 U/kg) as a bolus to all patients in the catheterization laboratory immediately prior to stenting. Cardiac markers were measured at the same times as the platelet assays. The peak levels of troponin I, creatinine kinase MB (CKMB), and myoglobin were determined using the Triage® Cardiac Panel with a Triage® Meter (Biosite Inc., San Diego, Calif.). This method is based on a fluorescence immunoassay for the quantitative determination of these cardiac markers.

[4] = system: platelets (ADP-induced aggregation); conditions: cited from earlier work
p-selectin = conditions: stimulated; 18-24 hours post-stenting; 300 mg clopidogrel alone
Experimental: The surface expression of platelet receptors was determined by whole blood flow cytometry using three-color analysis method (Immunocytometry Systems, Cytometry Source Book, Becton Dickinson) with the following monoclonal antibodies: FITCconjugated PAC-1. (recognizes activated GP IIb/IIIa receptors), R-Phycoerythrin (R-PE)-conjugated CD41a (recognizes total GP IIb/IIIa receptors), and CY-Chrome™ conjugated CD62P (recognizes p-selectin). All three antibodies were purchased from BD Biosciences, San Diego, Calif. The blood-citrate mixture was stimulated with 5 μM ADP for 2 minutes. Saturating concentrations of respective antibodies were then added and the tubes were incubated at room temperature for 20 minutes in the dark. […] The labeled samples were analyzed by a Becton Dickinson FACScan flow cytometer set up to measure fluorescence light scatter. The instrument was calibrated with fluorescence beads for the three-color flow cytometer setup (CaliBRITE™3, BD Biosciences). […] The data were collected in list mode and then analyzed using CELL Quest Software (BD BioSciences). P-selectin was expressed as percent positive cells (i.e. the ratio of CD62P (CY-Chrome™) verses CD41a (R-PE) positive cells) as previously described. Activated GP IIb/IIIa was expressed as log mean fluorescence intensity.

[5] = system: activated GP IIb/IIIa receptors; assay: Whole blood flow cytometry, stimulated active GP IIb/IIIa expression (Example 2); format: in vivo, patients; conditions: 18-24 hours post-stenting, 5 μM ADP stimulated
Experimental: (recognizes activated GP IIb/IIIa receptors), R-Phycoerythrin (R-PE)-conjugated CD41a (recognizes total GP IIb/IIIa receptors), and CY-Chrome™ conjugated CD62P (recognizes p-selectin). […] The blood-citrate mixture was stimulated with 5 μM ADP for 2 minutes.
The definition of an infarct was CK-MB>3× upper limits normal (ULN) in at least 2 samples and a large infarct was defined as CK-MB>5×ULN in at least 2 samples.10,13 Bleeding was quantified according to the TIMI criteria.16 In brief, major bleeding was defined as clinically overt bleeding accompanied by a fall in hemoglobin of […] or a fall in hematocrit of 9 to <15%.

[6] = Group A, 300 mg clopidogrel; hematoma
Experimental: Relative platelet inhibition was defined for purposes of this study as follows: (baseline aggregation minus posttreatment aggregation)/baseline aggregation×100%.14 Mean platelet reactivity was calculated as the average platelet aggregation recorded at 3, 8 and 18-24 hours poststenting. […] The definition of an infarct was CK-MB>3× upper limits normal (ULN) in at least 2 samples and a large infarct was defined as CK-MB>5×ULN in at least 2 samples.10,13 Bleeding was quantified according to the TIMI criteria.16 In brief, major bleeding was defined as clinically overt bleeding accompanied by a fall in hemoglobin of 3.0-5.0 g/dl or a fall in hematocrit of 9 to <15%. Major bleeding occurred when the hemoglobin decreased >5 g/dl or the hematocrit ≧15%.

[7] = system: platelets (arachidonic acid-induced aggregation); assay: Aspirin resistance by arachidonic acid-induced aggregation, LTA (Example 1); format: in vivo; conditions: 1.0 mM arachidonic acid; 1/70 patients; aspirin 81-325 mg qd
Description: J Am Coll Cardiol 1998 89:783).

[8] = system: platelets (arachidonic acid-induced aggregation); conditions: Gum et al. study; ADP and 1.6 mM arachidonic acid; cited from earlier work

COC(=O)[C@H](c1ccccc1Cl)N1CCc2sccc2C1 [clopidogrel]
estimated incidence of clopidogrel resistance ([1]; 5 μM ADP-induced aggregation): 65% | estimated incidence of clopidogrel resistance ([1]; 20 μM ADP-induced aggregation): 60% | time of peak inhibitory effect ([2]; 5 μM ADP, 300 mg clopidogrel loading dose): 18 to 24 h | time of peak inhibitory effect ([2]; 5 μM ADP, 600 mg clopidogrel loading dose): 8 h | platelet inhibition, 600 mg vs 300 mg loading dose ([2]; 5 μM ADP, 600 mg loading dose, no eptifibatide, first 24 hours after stenting): greater platelet inhibition | mean platelet reactivity vs 600 mg clopidogrel alone ([2]; 5 μM ADP, average of 3, 8 and 18-24 hours post-stenting, 300 mg clopidogrel alone): higher mean platelet reactivity | time of peak inhibitory effect ([2]; 20 μM ADP, 300 mg clopidogrel loading dose): 8 h | time of peak inhibitory effect ([2]; 20 μM ADP, 600 mg clopidogrel loading dose): 8 h | ST-elevation myocardial infarction in-hospital following a subacute thrombosis ([3]; Group A, 300 mg clopidogrel): one | criteria met for a myocardial infarction ([3]; Group A, 300 mg clopidogrel): 3 patients | large infarcts ([3]; Group A, 300 mg clopidogrel): 2 | criteria met for a myocardial infarction ([3]; Group B, 600 mg clopidogrel): 1 patients | large infarcts ([3]; Group B, 600 mg clopidogrel): 1 | inhibition of baseline aggregation ([4]; 300 mg loading dose, 5 and 20 μM ADP, 24 hours after administration): < 40% | effect in p-selectin expression (p-selectin): least effect | inhibition of stimulated expression of active GP IIb/IIIa ([5]; 300 mg clopidogrel loading dose (Groups A, C)): 50±20% | inhibition of stimulated expression of active GP IIb/IIIa ([5]; 600 mg clopidogrel loading dose (Groups B, D)): 63±7% | minor bleeding [6]: one

CC(=O)Oc1ccccc1C(=O)O [aspirin]
patients meeting the criteria for aspirin resistance [7]: 1.5% | patients meeting the criteria for aspirin resistance [8]: 5.5%

N=C(N)NCCCC[C@@H]1NC(=O)CCSSC[C@@H](C(N)=O)NC(=O)[C@@H]2CCCN2C(=O)[C@H](Cc2c[nH]c3ccccc23)NC(=O)[C@H](CC(=O)O)NC(=O)CNC1=O [eptifibatide] ([Mpa][hArg]GDWPC-NH2; disulfide 1-7)
mean platelet reactivity ([2]; 5 μM ADP, average of 3, 8 and 18-24 hours post-stenting, eptifibatide use): lowest mean platelet reactivity | large infarcts ([3]; either group that received eptifibatide (Groups C, D)): no large infarcts | CKMB release (>1-3×ULN), overall ([3]; groups treated with eptifibatide vs clopidogrel alone): lowest | inhibition (of aggregation) ([4]; other studies): > 80%
